In publication PMC6594156 (Phytotherapy research : PTR, 2015) one finds activity data, which are given here for two molecules.

For one experiment, the target named is T1, UGT1A3 (Homo sapiens, UniProt P35503).
T1 sequence (P35503 29-534): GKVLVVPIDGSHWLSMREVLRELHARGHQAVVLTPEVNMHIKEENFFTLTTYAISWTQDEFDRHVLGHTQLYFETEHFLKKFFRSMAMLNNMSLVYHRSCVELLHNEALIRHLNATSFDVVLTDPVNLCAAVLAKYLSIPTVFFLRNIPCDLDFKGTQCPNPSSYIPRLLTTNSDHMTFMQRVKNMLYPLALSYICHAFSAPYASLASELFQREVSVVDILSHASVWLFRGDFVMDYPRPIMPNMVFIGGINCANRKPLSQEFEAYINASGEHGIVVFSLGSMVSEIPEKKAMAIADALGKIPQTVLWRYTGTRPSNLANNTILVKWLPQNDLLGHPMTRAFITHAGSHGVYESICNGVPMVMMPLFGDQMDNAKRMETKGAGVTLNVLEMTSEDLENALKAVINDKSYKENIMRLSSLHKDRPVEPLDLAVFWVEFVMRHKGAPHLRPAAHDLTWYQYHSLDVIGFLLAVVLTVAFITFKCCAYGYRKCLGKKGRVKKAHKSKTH
Briefly: recombinant UGT 4-MU glucuronidation, HPLC, single concentration […]. The format is biochemical. The following applies: read-out: 1A3.

The next experiment addresses T2, UGT2B7 (Homo sapiens, UniProt P16662).
T2 sequence (P16662 24-529): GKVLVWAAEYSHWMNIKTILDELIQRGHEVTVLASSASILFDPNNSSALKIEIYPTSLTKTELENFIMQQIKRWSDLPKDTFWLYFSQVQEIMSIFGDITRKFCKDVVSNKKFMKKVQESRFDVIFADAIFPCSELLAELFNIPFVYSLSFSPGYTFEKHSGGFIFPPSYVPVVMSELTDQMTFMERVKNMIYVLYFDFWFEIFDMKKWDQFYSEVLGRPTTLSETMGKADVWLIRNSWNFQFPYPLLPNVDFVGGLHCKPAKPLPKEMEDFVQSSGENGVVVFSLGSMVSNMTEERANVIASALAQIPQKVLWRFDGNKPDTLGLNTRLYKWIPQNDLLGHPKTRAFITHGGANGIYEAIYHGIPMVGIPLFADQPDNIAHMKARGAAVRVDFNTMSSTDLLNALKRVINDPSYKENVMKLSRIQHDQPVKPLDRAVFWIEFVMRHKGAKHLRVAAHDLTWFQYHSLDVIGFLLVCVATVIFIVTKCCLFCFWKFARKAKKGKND
The description is as above. The format is biochemical. The following applies: read-out: 2B7.

Consider `COc1cc2c(c(OC)c1OC)-c1c(cc(OC)c(OC)c1OC)C[C@H](C)[C@H](C)C2` [schisandrin A], for which, on UGT1A3, the activity at 100 µM was 0%.

Regarding `COc1cc2c(c(O)c1OC)-c1c(cc(OC)c(OC)c1OC)C[C@@H](C)[C@@H](C)C2` [schisanhenol], the activity at 100 µM on UGT2B7 worked out at 7.9%.
